Values of other authors as cited in patent US20030118473A1, “Method and apparatus for ozone decontamination of biological liquids” (priority 2001, published 2003).

Tested on: hepatitis C infection
Conditions: preliminary research on hepatitis C infection; ozone therapy

In the case of `O=[O+][O-]` [ozone, Ozone], the “effect on hepatic enzymes (SGOT, SGPT, alkaline phosphatase)” value is listed as “significantly normalize hepatic enzymes”.
